Experimental data as given in patent US11028064B2, “Tricyclic heterocyclic derivatives and uses thereof” (AUCKLAND UNISERVICES LIMITED, priority 2016, dated 2021).

Experiments:
CSF-1R (FMS) = CSF-1R (FMS) (Homo sapiens (Human), UniProt P07333); assay: SelectScreen Z'-LYTE kinase assay, Assay 336 for CSF-1R (FMS); assay type: biochemical; conditions: Z'-LYTE activity assay, 500 μM ATP (Km app); read-out: CSF-1R Enzyme IC50
KDR (VEGFR2) = KDR (VEGFR2) (Homo sapiens (Human), UniProt P35968); assay: SelectScreen Z'-LYTE kinase assay, Assay 540 for KDR (VEGFR2); assay type: biochemical; conditions: Z'-LYTE activity assay, 75 μM ATP (Km app); read-out: VEGFR2 Enzyme IC50
KDR (VEGFR2), sequence (P35968 20-1356): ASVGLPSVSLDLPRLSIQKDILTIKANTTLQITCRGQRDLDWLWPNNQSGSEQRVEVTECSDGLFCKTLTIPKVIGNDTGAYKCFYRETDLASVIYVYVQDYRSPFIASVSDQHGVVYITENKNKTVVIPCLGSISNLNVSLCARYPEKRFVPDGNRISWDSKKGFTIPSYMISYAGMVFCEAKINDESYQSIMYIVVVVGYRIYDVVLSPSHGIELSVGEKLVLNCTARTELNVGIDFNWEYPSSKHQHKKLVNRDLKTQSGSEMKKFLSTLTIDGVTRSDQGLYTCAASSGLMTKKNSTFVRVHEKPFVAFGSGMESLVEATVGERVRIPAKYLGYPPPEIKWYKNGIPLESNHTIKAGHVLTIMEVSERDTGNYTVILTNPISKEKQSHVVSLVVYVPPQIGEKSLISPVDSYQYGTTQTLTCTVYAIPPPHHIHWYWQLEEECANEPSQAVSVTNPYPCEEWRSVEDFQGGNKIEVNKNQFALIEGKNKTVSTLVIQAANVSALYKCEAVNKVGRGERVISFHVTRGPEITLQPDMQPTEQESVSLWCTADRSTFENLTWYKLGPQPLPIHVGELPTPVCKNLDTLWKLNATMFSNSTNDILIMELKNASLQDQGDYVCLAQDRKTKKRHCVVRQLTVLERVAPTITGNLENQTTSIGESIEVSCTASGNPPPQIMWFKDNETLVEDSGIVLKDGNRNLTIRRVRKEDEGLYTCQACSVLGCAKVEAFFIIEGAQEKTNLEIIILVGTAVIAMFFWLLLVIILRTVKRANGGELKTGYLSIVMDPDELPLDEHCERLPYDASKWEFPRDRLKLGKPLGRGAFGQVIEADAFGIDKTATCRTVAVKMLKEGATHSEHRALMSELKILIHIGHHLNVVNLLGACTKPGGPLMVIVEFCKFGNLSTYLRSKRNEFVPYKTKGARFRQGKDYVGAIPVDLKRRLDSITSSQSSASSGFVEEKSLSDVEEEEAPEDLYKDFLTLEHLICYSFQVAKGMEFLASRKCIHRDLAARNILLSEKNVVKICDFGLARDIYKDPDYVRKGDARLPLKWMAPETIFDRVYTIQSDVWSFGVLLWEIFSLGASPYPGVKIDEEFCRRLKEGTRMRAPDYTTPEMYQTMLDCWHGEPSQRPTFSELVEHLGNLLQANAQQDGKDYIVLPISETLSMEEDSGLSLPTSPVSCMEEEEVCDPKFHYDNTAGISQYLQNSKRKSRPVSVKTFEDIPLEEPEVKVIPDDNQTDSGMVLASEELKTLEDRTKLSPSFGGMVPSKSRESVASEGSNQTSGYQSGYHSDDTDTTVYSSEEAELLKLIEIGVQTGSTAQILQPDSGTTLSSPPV

CSF-1R (FMS), sequence (P07333 20-972): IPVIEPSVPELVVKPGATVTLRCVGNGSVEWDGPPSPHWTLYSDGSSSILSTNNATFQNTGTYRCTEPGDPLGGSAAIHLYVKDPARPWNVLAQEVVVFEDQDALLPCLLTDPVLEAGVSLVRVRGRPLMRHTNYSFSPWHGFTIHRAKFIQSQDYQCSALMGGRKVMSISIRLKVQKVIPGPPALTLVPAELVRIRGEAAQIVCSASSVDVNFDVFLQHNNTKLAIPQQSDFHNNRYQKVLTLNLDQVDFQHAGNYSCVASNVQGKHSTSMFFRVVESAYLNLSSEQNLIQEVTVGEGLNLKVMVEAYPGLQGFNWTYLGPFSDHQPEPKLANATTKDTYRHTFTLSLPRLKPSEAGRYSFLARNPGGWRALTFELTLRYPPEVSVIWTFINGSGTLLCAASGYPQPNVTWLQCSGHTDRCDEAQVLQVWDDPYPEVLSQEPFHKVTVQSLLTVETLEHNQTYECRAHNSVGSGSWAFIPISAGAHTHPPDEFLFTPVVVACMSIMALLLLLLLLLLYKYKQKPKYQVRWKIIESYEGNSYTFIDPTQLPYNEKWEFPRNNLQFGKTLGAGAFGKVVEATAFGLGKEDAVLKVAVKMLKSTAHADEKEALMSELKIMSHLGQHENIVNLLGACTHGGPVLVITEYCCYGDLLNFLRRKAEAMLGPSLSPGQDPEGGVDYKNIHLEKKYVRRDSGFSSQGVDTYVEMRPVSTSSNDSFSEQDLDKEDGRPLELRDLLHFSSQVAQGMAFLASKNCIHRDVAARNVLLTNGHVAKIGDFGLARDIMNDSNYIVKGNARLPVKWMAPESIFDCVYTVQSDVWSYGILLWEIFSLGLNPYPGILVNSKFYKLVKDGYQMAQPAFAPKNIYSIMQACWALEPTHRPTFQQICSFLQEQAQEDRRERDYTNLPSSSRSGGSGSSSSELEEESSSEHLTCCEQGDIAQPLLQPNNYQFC

SMILES	IC50 (CSF-1R (FMS)) [µM]	IC50 (KDR (VEGFR2)) [µM]
CN(C)CCOc1cccc2c(=O)c3ccc(Oc4cccc(C(=O)Nc5ccccc5)c4)cc3oc12 [Example 2, 3-({5-[2-(Dimethylamino)ethoxy]-9-oxo-9H-xanthen-3-yl}oxy)-N-phenylbenzamide]	< 0.1	1 to 10
Cc1cc(OCCN(C)C)c2oc3cc(Oc4cccc(C(=O)Nc5ccccc5)c4)ccc3c(=O)c2c1 [Example 5, 3-((5-(2-(Dimethylamino)ethoxy)-7-methyl-9-oxo-9H-xanthen-3-yl)oxy)-N-phenyl-benzamide]		1 to 10
COc1ccc(Oc2ccc3c(=O)c4cc(C)cc(OCCN(C)C)c4oc3c2)cn1 [Example 8, 4-(2-(Dimethylamino)ethoxy)-6-((6-methoxypyridin-3-yl)oxy)-2-methyl-9H-xanthen-9-one]	0.1 to 1	> 10
Cc1cc(OCCN(C)C)c2sc3cc(Oc4ccc(CCC(=O)NC5CCCC5)nc4)ccc3c(=O)c2c1 [Example 51, N-Cyclopentyl-3-(5-((5-(2-(dimethylamino)ethoxy)-7-methyl-9-oxo-9H-thioxanthen-3-yl)oxy)pyridin-2-yl)propanamide]	< 0.1	
Cc1ccc2c(c1)c(=O)c1ccc(Sc3ccccc3)cc1n2CCCN(C)C [Example 52, 10-(3-(Dimethylamino)propyl)-2-methyl-6-(phenylthio)acridin-9(10H)-one]	1 to 10	
Cc1cc(OCCN(C)C)c2oc3cc(Oc4ccc(CCC(=O)N5CCN(C)CC5)nc4)ccc3c(=O)c2c1 [Example 54, 4-(2-(Dimethylamino)ethoxy)-2-methyl-6-((6-(3-(4-methylpiperazin-1-yl)-3-oxopropyl)pyridin-3-yl)oxy)-9H-xanthen-9-one]	< 0.1	
CCN(CC)CCOc1cc(C)cc2c(=O)c3ccc(Oc4ccc(CCC(=O)NC5CCCC5)nc4)cc3oc12 [Example 55, N-Cyclopentyl-3-(5-((5-(2-(diethylamino)ethoxy)-7-methyl-9-oxo-9H-xanthen-3-yl)oxy)pyridin-2-yl)propanamide]	< 0.1	
Cc1cc(OCCN2CCOCC2)c2oc3cc(Oc4ccc(CCC(=O)NC5CCCC5)nc4)ccc3c(=O)c2c1 [Example 56, N-Cyclopentyl-3-[5-({7-methyl-5-[2-(4-morpholinyl)ethoxy]-9-oxo-9H-xanthen-3-yl}oxy)-2-pyridinyl]propanamide]	< 0.1	
Cc1cc(OCCN(C(C)C)C(C)C)c2oc3cc(Oc4ccc(CCC(=O)NC5CCCC5)nc4)ccc3c(=O)c2c1 [Example 57, N-Cyclopentyl-3-[5-({5-[2-(diisopropylamino)ethoxy]-7-methyl-9-oxo-9H-xanthen-3-yl}oxy)-2-pyridinyl]propanamide]	< 0.1	
Cc1cc(OC2CCCN(C)C2)c2oc3cc(Oc4ccc(CCC(=O)NC5CCCC5)nc4)ccc3c(=O)c2c1 (stereo not shown) [Example 60, N-Cyclopentyl-3-(5-((7-methyl-5-((1-methylpiperidin-3-yl)oxy)-9-oxo-9H-xanthen-3-yl)oxy)pyridin-2-yl)propanamide]	< 0.1	
Cc1cc(OCCN2C[C@@H](C)N[C@@H](C)C2)c2oc3cc(Oc4ccc(CCC(=O)NC5CCCC5)nc4)ccc3c(=O)c2c1 [Example 61, N-Cyclopentyl-3-(5-((5-(2-((3S,5R)-3,5-dimethylpiperazin-1-yl)ethoxy)-7-methyl-9-oxo-9H-xanthen-3-yl)oxy)pyridin-2-yl)propanamide]	< 0.1	
Cc1cc(OCCCN(C)C)c2oc3cc(Oc4ccc(CCC(=O)NC5CCCC5)nc4)ccc3c(=O)c2c1 [Example 63, N-Cyclopentyl-3-(5-((5-(3-(dimethylamino)propoxy)-7-methyl-9-oxo-9H-xanthen-3-yl)oxy)pyridin-2-yl)propanamide]	< 0.1	
Cc1cc(OCCCN2[C@H](C)CCC[C@@H]2C)c2oc3cc(Oc4ccc(CCC(=O)NC5CCCC5)nc4)ccc3c(=O)c2c1 [Example 64, N-Cyclopentyl-3-(5-((5-(3-((2R,6S)-2,6-dimethylpiperidin-1-yl)propoxy)-7-methyl-9-oxo-9H-xanthen-3-yl)oxy)pyridin-2-yl)propanamide]	< 0.1	
CCN1CCN(CCCOc2cc(C)cc3c(=O)c4ccc(Oc5ccc(CCC(=O)NC6CCCC6)nc5)cc4oc23)CC1 [Example 65, N-Cyclopentyl-3-(5-((5-(3-(4-ethylpiperazin-1-yl)propoxy)-7-methyl-9-oxo-9H-xanthen-3-yl)oxy)pyridin-2-yl)propanamide]	< 0.1	
Cc1cc(OCCCN2C[C@@H](C)N(C)[C@@H](C)C2)c2oc3cc(Oc4ccc(CCC(=O)NC5CCCC5)nc4)ccc3c(=O)c2c1 [Example 68, N-Cyclopentyl-3-(5-((7-methyl-9-oxo-5-(3-((3S,5R)-3,4,5-trimethylpiperazin-1-yl)propoxy)-9H-xanthen-3-yl)oxy)pyridin-2-yl)propanamide]	< 0.1	
Cc1cc(OCCCN2CCOCC2)c2oc3cc(Oc4ccc(CCC(=O)NC5CCCC5)nc4)ccc3c(=O)c2c1 [Example 69, N-Cyclopentyl-3-[5-({7-methyl-5-[3-(4-morpholinyl)propoxy]-9-oxo-9H-xanthen-3-yl}oxy)-2-pyridinyl]propanamide]	< 0.1	
Cc1cc(OC2CCN(C)C2)c2oc3cc(Oc4ccc(CCC(=O)NC5CCCC5)nc4)ccc3c(=O)c2c1 (stereo not shown) [Example 70, N-Cyclopentyl-3-(5-((7-methyl-5-((1-methylpyrrolidin-3-yl)oxy)-9-oxo-9H-xanthen-3-yl)oxy)pyridin-2-yl)propanamide]	< 0.1	
Cc1cc(OC2CCN(C)CC2)c2oc3cc(Oc4ccc(CCC(=O)NC5CCCC5)nc4)ccc3c(=O)c2c1 [Example 71, N-Cyclopentyl-3-[5-({7-methyl-5-[(1-methyl-4-piperidinyl)oxy]-9-oxo-9H-xanthen-3-yl}oxy)-2-pyridinyl]propanamide]		1 to 10
Cc1cc(OC[C@H]2CCCN2C)c2oc3cc(Oc4ccc(CCC(=O)NC5CCCC5)nc4)ccc3c(=O)c2c1 [Example 72, (R)—N-Cyclopentyl-3-(5-((7-methyl-5-((1-methylpyrrolidin-2-yl)methoxy)-9-oxo-9H-xanthen-3-yl)oxy)pyridin-2-yl)propanamide]	< 0.1	
Cc1cc(OC[C@@H]2CCCN2C)c2oc3cc(Oc4ccc(CCC(=O)NC5CCCC5)nc4)ccc3c(=O)c2c1 [Example 73, (S)—N-Cyclopentyl-3-(5-((7-methyl-5-((1-methylpyrrolidin-2-yl)methoxy)-9-oxo-9H-xanthen-3-yl)oxy)pyridin-2-yl)propanamide]	< 0.1	
Cc1cc(OCC2CCCCN2C)c2oc3cc(Oc4ccc(CCC(=O)NC5CCCC5)nc4)ccc3c(=O)c2c1 (stereo not shown) [Example 74, N-Cyclopentyl-3-(5-((7-methyl-5-((1-methylpiperidin-2-yl)methoxy)-9-oxo-9H-xanthen-3-yl)oxy)pyridin-2-yl)propanamide]	< 0.1	
Cc1cc(OCCC2CCCN2C)c2oc3cc(Oc4ccc(CCC(=O)NC5CCCC5)nc4)ccc3c(=O)c2c1 (stereo not shown) [Example 75, N-Cyclopentyl-3-(5-((7-methyl-5-(2-(1-methylpyrrolidin-2-yl)ethoxy)-9-oxo-9H-xanthen-3-yl)oxy)pyridin-2-yl)propanamide]	< 0.1	
Cc1cc(OCC2CCCN(C)C2)c2oc3cc(Oc4ccc(CCC(=O)NC5CCCC5)nc4)ccc3c(=O)c2c1 (stereo not shown) [Example 76, N-Cyclopentyl-3-(5-((7-methyl-5-((1-methylpiperidin-3-yl)methoxy)-9-oxo-9H-xanthen-3-yl)oxy)pyridin-2-yl)propanamide]	< 0.1	
